According to ChEMBL document CHEMBL4739716, “Gpr139 receptor modulators” (2020):

Assays:
[1] = target: T1, Probable G-protein coupled receptor 139 (Homo sapiens, UniProt Q6DWJ6); assay: Agonist activity at human GPR139 expressed in CHO-K1 cells assessed as increase in calcium flux by calcium 5 dye based FLIPR assay; format: functional, cell-based
T1 sequence (Q6DWJ6 whole entry): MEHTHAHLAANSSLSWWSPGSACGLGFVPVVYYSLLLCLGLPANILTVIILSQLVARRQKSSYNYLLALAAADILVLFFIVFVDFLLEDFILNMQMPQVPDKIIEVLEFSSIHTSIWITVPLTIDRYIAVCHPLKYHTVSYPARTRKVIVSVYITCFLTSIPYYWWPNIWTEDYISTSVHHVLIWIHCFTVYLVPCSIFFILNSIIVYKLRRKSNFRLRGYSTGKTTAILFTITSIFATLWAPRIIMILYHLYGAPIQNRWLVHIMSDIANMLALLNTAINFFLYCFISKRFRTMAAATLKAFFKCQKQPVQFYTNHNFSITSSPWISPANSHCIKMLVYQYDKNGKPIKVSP

[2] = target: T1, Probable G-protein coupled receptor 139; assay: Agonist activity at human GPR139 expressed in CHO-K1 cells assessed as induction of beta-arrestin 2 recruitment incubated for 90 mins by PathHunter assay; format: cell-based
[3] = target: T2, Probable G-protein coupled receptor 139 (Rattus norvegicus, UniProt P0C0W8); assay: Agonist activity at rat GPR139 expressed in CHO-K1 cells assessed as increase in calcium flux by calcium 5 dye based FLIPR assay; format: cell-based
T2 sequence (P0C0W8 whole entry): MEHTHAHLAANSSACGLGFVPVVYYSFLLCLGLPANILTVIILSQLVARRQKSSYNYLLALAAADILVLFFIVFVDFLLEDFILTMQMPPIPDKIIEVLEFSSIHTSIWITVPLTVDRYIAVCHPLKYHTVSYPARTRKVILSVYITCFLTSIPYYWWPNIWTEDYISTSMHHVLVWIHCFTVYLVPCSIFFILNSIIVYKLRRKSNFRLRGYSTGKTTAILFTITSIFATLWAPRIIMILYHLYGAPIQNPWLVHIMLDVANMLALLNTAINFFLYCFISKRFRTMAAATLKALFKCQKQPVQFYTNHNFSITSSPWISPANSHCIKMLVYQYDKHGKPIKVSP

[4] = target: T3, Probable G-protein coupled receptor 139 (Rattus norvegicus) (UniProt P0C0W8); assay: Agonist activity at rat GPR139 expressed in CHO-K1 cells assessed as increase in calcium flux by calcium 5 dye based FLIPR assay relative to JNJ63533054; format: cell-based
T3 sequence (whole entry): T2 sequence (P0C0W8 whole entry)

[5] = target: T4, Probable G-protein coupled receptor 139 (Homo sapiens) (UniProt Q6DWJ6); assay: Agonist activity at human GPR139 expressed in CHO-K1 cells assessed as induction of beta-arrestin 2 recruitment incubated for 90 mins by PathHunter assay relative to JNJ63533054; format: cell-based
T4 sequence (whole entry): T1 sequence (Q6DWJ6 whole entry)

[6] = target: T4, Probable G-protein coupled receptor 139 (Homo sapiens); assay: Agonist activity at human GPR139 expressed in CHO-K1 cells assessed as increase in calcium flux by calcium 5 dye based FLIPR assay relative to JNJ63533054; format: functional, cell-based

| SMILES | EC50 ([1]; cho-k1) [nM] | EC50 ([2]; cho-k1) [nM] | EC50 ([3]; cho-k1) [nM] | EC50 [1] [nM] | EC50 [3] [nM] | Emax ([4]; filed as agonist) [%] | Emax ([5]; filed as agonist) [%] | Emax ([6]; filed as agonist) [%] | EC50 [2] [nM] | Emax [5] [%] | Emax [4] [%] | Emax [6] [%] |
| --- | --- | --- | --- | --- | --- | --- | --- | --- | --- | --- | --- | --- |
| CC(C(=O)N[C@@H](C)c1ccc(Cl)c(F)c1)n1nc2cccnn2c1=O (stereo in doubt; I-6-2) [listing 1 of 2 here] | 1 | 10 | 1 | – | – | – | – | – | – | – | – | – |
| Cc1ccn2c(=O)n(CC(=O)N[C@@H](C)c3ccc(OC(F)(F)F)cc3)nc2c1 | – | 1 | – | < 1 | < 1 | 50 | > 80 | > 80 | – | – | – | – |
| O=C(Cn1nc2cccnn2c1=O)NC1(c2ccc(Cl)cc2)CC1 | – | – | – | ≥ 100 | ≥ 100 | 50 | – | 50 | ≥ 100 | < 25 | – | – |
| COc1ccn2c(=O)n(CC(=O)N[C@@H](C)c3ccc(C)cc3)nc2c1 | – | 1 | – | < 1 | < 1 | 50 | 50 | > 80 | – | – | – | – |
| Cc1ccc([C@H](C)NC(=O)C(C)n2nc3ccccn3c2=O)cc1 (stereo in doubt; form 2) [listing 1 of 2 here] | – | – | – | – | – | > 80 | > 80 | > 80 | – | – | – | – |
| C[C@H](NC(=O)Cn1nc2cc(-c3ccccc3)ccn2c1=O)c1ccc(Cl)c(F)c1 | – | – | – | < 1 | < 1 | > 80 | > 80 | > 80 | < 1 | – | – | – |
| C[C@H](NC(=O)Cn1nc2c(N3CCC34CN(C)C4)cccn2c1=O)c1ccc(Cl)c(F)c1 | 10 | 10 | 10 | – | – | > 80 | – | 50 | – | 25 | – | – |
| CC(C(=O)N[C@@H](C)c1ccc(Cl)c(F)c1)n1nc2ccccn2c1=O (stereo in doubt; form 1) [listing 1 of 2 here] | – | – | – | < 1 | < 1 | – | – | – | < 1 | – | – | – |
| C[C@H](NC(=O)Cn1nc2cc(N3CCOCC3)cnn2c1=O)c1ccc(Cl)c(F)c1 | 1 | – | 1 | – | – | > 80 | – | > 80 | ≥ 100 | 25 | – | – |
| C[C@H](NC(=O)Cn1nc2c(C(F)(F)F)ccnn2c1=O)c1ccc(Cl)c(F)c1 | – | 1 | – | < 1 | – | – | 50 | > 80 | – | – | – | – |
| CC(C(=O)N[C@@H](C)c1ccc(Cl)c(F)c1)n1nc2ccccn2c1=O (stereo in doubt; form 1) [listing 2 of 2 here] | – | – | – | – | – | 50 | > 80 | > 80 | – | – | – | – |
| C[C@H](NC(=O)Cn1nc2ccc(C3CC3)nn2c1=O)c1ccc(Cl)c(F)c1 | – | 1 | – | < 1 | – | – | 50 | > 80 | – | – | – | – |
| CC(C(=O)N[C@@H](C)c1ccc(Cl)c(F)c1)n1nc2ncccn2c1=O (stereo in doubt; form 2) [listing 1 of 2 here] | – | – | – | – | – | – | 50 | > 80 | – | – | 25 | – |
| CNc1ccnn2c(=O)n(CC(=O)N[C@@H](C)c3ccc(Cl)c(F)c3)nc12 | – | 1 | – | < 1 | – | – | > 80 | > 80 | – | – | – | – |
| Cc1ccc([C@H](C)NC(=O)C(C)n2nc3ccccn3c2=O)cc1 (stereo in doubt; form 3) | – | – | – | – | – | – | 50 | > 80 | – | – | 25 | – |
| CC(C(=O)N[C@@H](C)c1ccc(Cl)c(F)c1)n1nc2cccnn2c1=O (stereo in doubt; I-6-2) [listing 2 of 2 here] | – | – | – | – | – | > 80 | 50 | > 80 | – | – | – | – |
| CC(C(=O)N[C@@H](C)c1ccc(Cl)c(F)c1)n1nc2cccnn2c1=O (stereo in doubt; I-6-1) [listing 2 of 2 here] | 10 | – | 10 | – | – | – | – | – | ≥ 100 | – | – | – |
| C[C@H](NC(=O)Cn1nc2ccccn2c1=O)c1ccc(-c2ccccc2)cc1 | 10 | – | – | – | – | – | – | – | ≥ 100 | < 25 | – | 25 |
| CC(C(=O)N[C@@H](C)c1ccc(Cl)c(F)c1)n1nc2ncccn2c1=O (stereo in doubt; form 2) [listing 2 of 2 here] | – | 1 | – | – | ≥ 100 | – | – | – | – | – | – | – |
| Cc1ccc([C@H](C)NC(=O)C(C)n2nc3ccccn3c2=O)cc1 (stereo in doubt; form 2) [listing 2 of 2 here] | – | – | – | – | < 1 | – | – | – | ≥ 100 | – | – | – |
| C[C@H](NC(=O)Cn1nc2ccccn2c1=O)c1ccc(OC(F)F)c(F)c1 | 1 | – | 1 | – | – | 50 | – | > 80 | – | – | – | – |
| Cc1ccc([C@H](C)NC(=O)Cn2nc3ncccn3c2=O)cc1 | 10 | – | – | – | ≥ 100 | – | – | > 80 | – | – | 25 | – |
| CC(C(=O)N[C@@H](C)c1ccc(Cl)c(F)c1)n1nc2ccccn2c1=O (stereo in doubt; form 2) [listing 2 of 2 here] | – | – | – | – | – | – | 50 | > 80 | – | – | 25 | – |
| COc1ccn2c(=O)n(CC(=O)N[C@@H](C)c3ccc(C)cc3)nc2n1 | 1 | – | 1 | – | – | 50 | – | > 80 | – | – | – | – |
| Cc1ccc([C@H](C)NC(=O)Cn2nc3ccc(Br)cn3c2=O)cc1 | 1 | – | – | – | < 1 | 50 | – | > 80 | – | – | – | – |
| C[C@H](NC(=O)Cn1nc2ncc(F)cn2c1=O)c1ccc(Cl)cc1 | 1 | – | – | – | ≥ 100 | – | – | > 80 | – | – | 25 | – |

More lines, now with the values ahead:

| EC50 ([1]; cho-k1) [nM] | EC50 ([2]; cho-k1) [nM] | EC50 ([3]; cho-k1) [nM] | EC50 [1] [nM] | EC50 [3] [nM] | Emax ([4]; filed as agonist) [%] | Emax ([5]; filed as agonist) [%] | Emax ([6]; filed as agonist) [%] | EC50 [2] [nM] | Emax [5] [%] | Emax [4] [%] | Emax [6] [%] | SMILES |
| --- | --- | --- | --- | --- | --- | --- | --- | --- | --- | --- | --- | --- |
| – | 1 | 1 | < 1 | – | > 80 | > 80 | > 80 | – | – | – | – | C[C@H](NC(=O)Cn1nc2ccccn2c1=O)c1ccc(Cl)c(Cl)c1 |
| – | – | – | < 1 | – | – | > 80 | > 80 | ≥ 100 | – | – | – | C[C@H](NC(=O)Cn1nc2c(N3CCOCC3)ccnn2c1=O)c1ccc(Cl)c(F)c1 |
| 1 | 10 | 1 | – | – | – | 50 | > 80 | – | – | 25 | – | Cc1ncc([C@H](C)NC(=O)Cn2nc3cc(Cl)ccn3c2=O)cc1F |
| – | 1 | – | < 1 | < 1 | > 80 | > 80 | > 80 | – | – | – | – | Cc1ccn2c(=O)n(CC(=O)N[C@@H](C)c3ccc(Cl)c(F)c3)nc2c1 |
| 1 | – | 10 | – | – | – | 50 | > 80 | ≥ 100 | – | 25 | – | C[C@H](NC(=O)Cn1nc2ncccn2c1=O)c1ccc(C2CC2)c(F)c1 |
| 1 | – | 1 | – | – | > 80 | – | > 80 | ≥ 100 | 25 | – | – | C[C@H](NC(=O)Cn1nc2cc(N3CCC(O)CC3)ccn2c1=O)c1ccc(OC(F)(F)F)cc1 |
| 1 | – | 1 | – | – | > 80 | 50 | > 80 | ≥ 100 | – | – | – | Cc1cnn2c(=O)n(CC(=O)N[C@@H](C)c3ccc(Cl)c(F)c3)nc2c1 |
| – | – | – | – | – | 50 | 50 | > 80 | – | – | – | – | CC(C(=O)N[C@@H](C)c1ccc(Cl)c(F)c1)n1nc2ncccn2c1=O (stereo in doubt; form 1) [listing 1 of 2 here] |
| 1 | – | – | – | ≥ 100 | 50 | – | > 80 | ≥ 100 | 25 | – | – | C[C@H](NC(=O)Cn1nc2c(NC3COC3)ccnn2c1=O)c1ccc(OC(F)(F)F)cc1 |
| 1 | – | – | – | < 1 | – | – | > 80 | < 1 | 25 | 25 | – | COc1ccc2nn(CC(=O)N[C@@H](C)c3ccc(C)cc3)c(=O)n2c1 |
| – | 1 | – | < 1 | – | – | > 80 | > 80 | – | – | – | – | COc1ccnn2c(=O)n(CC(=O)N[C@@H](C)c3ccc(Cl)c(F)c3)nc12 |
| – | – | – | – | – | 50 | – | > 80 | – | 25 | – | – | CC(C(=O)N[C@@H](C)c1ccc(Cl)c(F)c1)n1nc2cccnn2c1=O (stereo in doubt; I-6-1) [listing 1 of 2 here] |
| 1 | – | – | – | – | – | – | 50 | ≥ 100 | < 25 | – | – | O=C(Cn1nc2cccnn2c1=O)N[C@H](c1ccc(Cl)c(F)c1)C1CC1 |
| 1 | 10 | 1 | – | – | – | – | – | – | – | – | – | CC(C(=O)N[C@@H](C)c1ccc(Cl)c(F)c1)n1nc2ccccn2c1=O (stereo in doubt; form 2) [listing 1 of 2 here] |
| 1 | – | 10 | – | – | – | – | – | ≥ 100 | – | – | – | CC(C(=O)N[C@@H](C)c1ccc(Cl)c(F)c1)n1nc2ncccn2c1=O (stereo in doubt; form 1) [listing 2 of 2 here] |
| 1 | – | 1 | – | – | > 80 | – | > 80 | – | – | – | – | C[C@H](NC(=O)Cn1nc2ncc(F)cn2c1=O)c1ccc(Cl)c(F)c1 |
| – | – | – | < 1 | < 1 | 50 | – | > 80 | – | – | – | – | C[C@H](NC(=O)Cn1nc2cccc(N3CC(F)(F)C3)n2c1=O)c1ccc(Cl)c(F)c1 |
